According to patent US9834558B2, “Substituted bridged urea analogs as sirtuin modulators” (GLAXOSMITHKLINE LLC, priority 2013, dated 2017):
One block for each molecule: values may come before it.

Biological target: T1, SIRT1 (Homo sapiens, UniProt Q96EB6)
T1 sequence (Q96EB6 1-747): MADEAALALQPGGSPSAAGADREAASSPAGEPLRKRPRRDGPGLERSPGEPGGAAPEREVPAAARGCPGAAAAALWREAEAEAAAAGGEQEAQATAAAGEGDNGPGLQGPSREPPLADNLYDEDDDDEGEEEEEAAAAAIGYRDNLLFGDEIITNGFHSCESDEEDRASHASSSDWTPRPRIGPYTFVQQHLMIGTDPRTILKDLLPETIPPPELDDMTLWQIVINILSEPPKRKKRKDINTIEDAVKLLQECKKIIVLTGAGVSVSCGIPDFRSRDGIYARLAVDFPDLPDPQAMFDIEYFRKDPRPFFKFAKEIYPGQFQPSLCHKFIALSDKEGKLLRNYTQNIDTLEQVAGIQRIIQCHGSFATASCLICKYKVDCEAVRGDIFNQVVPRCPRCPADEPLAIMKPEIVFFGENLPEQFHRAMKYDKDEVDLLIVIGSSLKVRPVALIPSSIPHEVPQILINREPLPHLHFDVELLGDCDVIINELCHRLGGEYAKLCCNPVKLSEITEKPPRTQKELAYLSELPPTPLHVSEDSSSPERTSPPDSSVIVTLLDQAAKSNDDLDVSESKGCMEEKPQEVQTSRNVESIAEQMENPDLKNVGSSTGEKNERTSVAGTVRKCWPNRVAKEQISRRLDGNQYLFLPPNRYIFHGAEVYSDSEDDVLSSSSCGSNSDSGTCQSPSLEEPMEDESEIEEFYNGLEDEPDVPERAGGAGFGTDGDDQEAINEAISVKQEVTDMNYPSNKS
Assay: Trp mass spectrometry assay of SIRT1 activation
Format: biochemical
Conditions: for TRP Activity (EC1.5): EC1.5 = concentration that results in 150% activation of SIRT1; for Emax: read-out: TRP MAX RESP (percent maximum fold activation)
How it was run: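 Activation read-out: mass-spec measurement of O-acetyl-ADP-ribose or deacetylated Trp peptide versus compound-free controls, giving EC1.5 and Percent Maximum Activation. Reactions ran 25 min at 25 °C, pH 7.5, with 120 μM βNAD+, 0.5 μM acetylated p53-derived peptide and 10 nM His-tagged SIRT1.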

[1] = Trp mass spectrometry assay, EC1.5 = concentration of test compound that results in 150% activation of SIRT1
[2] = Trp mass spectrometry assay, concentration of test compound giving 150% activation of SIRT1
[3] = concentration giving 150% activation of SIRT1, Trp peptide substrate
[4] = Trp peptide assay, maximum activity relative to control (100%)

SMILES: O=C(Nc1cc(Br)cc(-c2cnco2)c1)N1c2nc(-c3cccc(C(F)(F)F)c3)ccc2N2CC[C@H]1C2 [Example 562]
- Tryp AVG EC1.5 (μM) [1]: A (A (EC1.5<1 μM))

SMILES: CC(C)(C)OC(=O)N1CCC(c2cccc(NC(=O)N3c4nc(-c5cccc(C(F)(F)F)c5)ccc4N4CC[C@H]3C4)c2)C1 (stereo partly shown) [Example 592]
- Tryp AVG EC1.5 (μM) [1]: A (A (EC1.5<1 μM))

SMILES: C#CCNc1nccc(NC(=O)N2c3nc(-c4ccc(C5(C(F)(F)F)N=N5)cc4)ccc3N3CC[C@H]2C3)n1 [Example 805]
- Tryp AVG EC1.5 (μM) [3]: B (B (EC1.5 1-25 μM))

SMILES: O=C(O)c1cc(NC(=S)NCc2ccc(NC(=O)N3c4nc(-c5cccc(C(F)(F)F)c5)ccc4N4CCC[C@H]3C4)cc2)ccc1-c1c2ccc(=O)cc-2oc2cc(O)ccc12 [Example 563]
- Tryp AVG EC1.5 (μM) [1]: A (A (EC1.5<1 μM))

SMILES: O=C(C1CC1)N1CCC(c2cccc(NC(=O)N3c4nc(-c5cccc(C(F)(F)F)c5)ccc4N4CC[C@H]3C4)c2)C1 (stereo partly shown) [Example 637]
- Tryp AVG EC1.5 (μM) [3]: A (A (EC1.5<1 μM))

SMILES: O=C(Nc1nnc(-c2ccccc2)s1)N1c2nc(-c3cccc(C(F)(F)F)c3)ccc2N2CC[C@H]1C2 [Example 648]
- Tryp AVG EC1.5 (μM) [3]: A (A (EC1.5<1 μM))

SMILES: CC1(C)CN(c2ccc3c(n2)N(C(=O)Nc2cnccn2)[C@H]2CCN3C2)CCO1 [(9S)-5-(2,2-dimethylmorpholin-4-yl)-N-(pyrazin-2-yl)-1,6,8-triazatricyclo[7.2.1.0 {2,7}]dodeca-2(7),3,5-triene-8-carboxamide]
- TRP Activity (EC1.5) (Trp peptide assay): A (A (EC1.5<1 μM))
- Emax [4]: > 150%

SMILES: O=C(Nc1ccc(F)cn1)N1c2nc(N3CCC[C@H](C(F)(F)F)C3)ccc2N2CCC[C@H]1C2 [drawing 1208, (9S)-N-(5-fluoropyridin-2-yl)-5-[(3S)-3-(trifluoromethyl)piperidin-1-yl]-1,6,8-triazatricyclo[7.3.1.0 {2,7}]trideca-2(7),3,5-triene-8-carboxamide]
- TRP Activity (EC1.5) (Trp peptide assay): B (B (EC1.5 1-25 μM))
- TRP MAX RESP (percent maximum fold activation) [4]: A (A (Fold activation ≧150%))

SMILES: N=C(N)NCc1ncc(-c2cccc(NC(=O)N3c4nc(-c5cccc(C(F)(F)F)c5)ccc4N4CC[C@H]3C4)c2)o1 [Example 776]
- Tryp AVG EC1.5 (μM) [3]: A (A (EC1.5<1 μM))

SMILES: O=C(NCCO)c1ccc2c(n1)N(C(=O)Nc1ccccn1)[C@H]1CCN2C1 [(9S)-5-N-(2-hydroxyethyl)-8-N-(pyridin-2-yl)-1,6,8-triazatricyclo[7.2.1.0^{2,7}]dodeca-2(7),3,5-triene-5,8-dicarboxamide]
- TRP Activity (EC1.5) (Trp peptide assay): B (B (EC1.5 1-25 μM))
- Emax [4]: > 150%

SMILES: O=C(Nc1cccc(-c2cnco2)c1)N1c2nc(-c3cccc(C(F)(F)F)c3)ccc2N2CCC1CC2 [Example 473]
- Tryp AVG EC1.5 (μM) [1]: A (A (EC1.5<1 μM))

SMILES: Cc1cc(-c2ccc3c(n2)N(C(=O)NC2CCC2)[C@H]2CCN3C2)ccn1 [(9S)-N-cyclobutyl-5-(2-methylpyridin-4-yl)-1,6,8-triazatricyclo[7.2.1.0 {2,7}]dodeca-2(7),3,5-triene-8-carboxamide]
- TRP Activity (EC1.5) (Trp peptide assay): B (B (EC1.5 1-25 μM))
- Emax [4]: > 150%

SMILES: C#CCNc1nccc(NC(=O)N2c3nc(-c4cccc(C5(C(F)(F)F)N=N5)c4)ccc3N3CC[C@H]2C3)n1 [Example 804]
- Tryp AVG EC1.5 (μM) [3]: A (A (EC1.5<1 μM))

SMILES: O=C1CN2C[C@H]1N(C(=O)Nc1ccccn1)c1nc(-c3cccc(C(F)(F)F)c3)ccc12 [Example 620]
- Tryp AVG EC1.5 (μM) [1]: B (B (EC1.5 1-25 μM))

SMILES: CC(C)C(=O)c1cccc(NC(=O)N2c3nc(-c4cccc(C(F)(F)F)c4)ccc3N3CC[C@H]2C3)c1 [Example 740]
- Tryp AVG EC1.5 (μM) [3]: A (A (EC1.5<1 μM))

SMILES: C[C@@H]1CN(c2ccc3c(n2)N(C(=O)Nc2cnccn2)[C@H]2CCN3C2)CCO1 [(9S)-5-[(2R)-2-methylmorpholin-4-yl]-N-(pyrazin-2-yl)-1,6,8-triazatricyclo[7.2.1.0 {2,7}]dodeca-2,4,6-triene-8-carboxamide]
- TRP Activity (EC1.5) (Trp peptide assay): B (B (EC1.5 1-25 μM))
- Emax [4]: > 150%

SMILES: O=C(Nc1cnccn1)N1c2nc(-c3cccc(C(F)(F)F)n3)ccc2N2CC[C@H]1C2 [Example 338]
- Tryp AVG EC1.5 (μM) [2]: B (B (EC1.5 1-25 μM))

SMILES: C[C@H]1CN(c2ccc3c(n2)N(C(=O)Nc2cnccn2)[C@H]2CCN3C2)C[C@H](C)O1 [(9S)-5-[(2S,6S)-2,6-dimethylmorpholin-4-yl]-N-(pyrazin-2-yl)-1,6,8-triazatricyclo[7.2.1.0^{2,7}]dodeca-2(7),3,5-triene-8-carboxamide]
- TRP Activity (EC1.5) (Trp peptide assay): B (B (EC1.5 1-25 μM))
- Emax [4]: > 150%

SMILES: Cc1ccc(-c2cccc(NC(=O)N3c4nc(-c5cccc(C(F)(F)F)c5)ccc4N4CC[C@H]3C4)c2)cc1C [Example 619]
- Tryp AVG EC1.5 (μM) [1]: C (C (EC1.5>25 μM))

SMILES: CN(C)Cc1cccc(-c2ccc3c(n2)N(C(=O)Nc2ccccn2)[C@H]2CCN3C2)c1 [Example 343]
- Tryp AVG EC1.5 (μM) [2]: B (B (EC1.5 1-25 μM))

Other lines, results leading:

- Tryp AVG EC1.5 (μM) [2]: A (A (EC1.5<1 μM))
SMILES: O=C(Nc1cccnc1)N1c2nc(-c3cccc(C(F)(F)F)c3)ccc2N2CCC[C@H]1C2 [314 (5)]

- TRP Activity (EC1.5) (Trp peptide assay): B (B (EC1.5 1-25 μM))
- Emax [4]: > 150%
SMILES: Cc1cc(-c2ccc3c(n2)N(C(=O)Nc2cncnc2)[C@H]2CCCN3C2)ccn1 [(9S)-5-(2-methylpyridin-4-yl)-N-(pyrimidin-5-yl)-1,6,8-triazatricyclo[7.3.1.0 {2,7}]trideca-2(7),3,5-triene-8-carboxamide]

- Tryp AVG EC1.5 (μM) [1]: A (A (EC1.5<1 μM))
SMILES: Cc1cncc(-c2ccc3c(n2)N(C(=O)Nc2cncc(F)c2)[C@H]2CCCN3C2)c1 [Example 509]

- TRP Activity (EC1.5) (Trp peptide assay): B (B (EC1.5 1-25 μM))
- Emax [4]: > 150%
SMILES: N#Cc1ccc(-c2ccc3c(n2)N(C(=O)Nc2cccnc2)[C@H]2CCN3C2)cn1 [(9S)-5-(6-cyanopyridin-3-yl)-N-(pyridin-3-yl)-1,6,8-triazatricyclo[7.2.1.0^2,7]dodeca-2,4,6-triene-8-carboxamide]

- TRP Activity (EC1.5) (Trp peptide assay): C (C (EC1.5>25 μM))
- Emax [4]: > 150%
SMILES: Cc1cc(-c2ccc3c(n2)N(C(=O)Nc2cncnc2)[C@H]2CCN3C2)ccn1 [(9S)-5-(2-methylpyridin-4-yl)-N-(pyrimidin-5-yl)-1,6,8-triazatricyclo[7.2.1.0 {2,7}]dodeca-2(7),3,5-triene-8-carboxamide]

- Tryp AVG EC1.5 (μM) [1]: B (B (EC1.5 1-25 μM))
SMILES: O=C(Nc1cnccn1)N1c2nc(-c3cncc(Cl)c3)ccc2N2CCC1CC2 [Example 550]

- TRP Activity (EC1.5) (Trp peptide assay): A (A (EC1.5<1 μM))
- Emax [4]: > 150%
SMILES: O=C(Nc1cccnn1)N1c2nc(-c3ccnc(C(F)(F)F)c3)ccc2N2CCC[C@H]1C2 [(9S)-N-(pyridazin-3-yl)-5-[2-(trifluoromethyl)pyridin-4-yl]-1,6,8-triazatricyclo[7.3.1.0 {2,7}]trideca-2(7),3,5-triene-8-carboxamide]

- Tryp AVG EC1.5 (μM) [3]: A (A (EC1.5<1 μM))
SMILES: N=C(N)NCc1ccc(NC(=O)N2c3nc(-c4cccc(C(F)(F)F)c4)ccc3N3CCC[C@H]2C3)cc1 [Example 777]

- Tryp AVG EC1.5 (μM) [2]: A (A (EC1.5<1 μM))
SMILES: O=C(Nc1ccc(F)cn1)N1c2nc(-c3cncc(Cl)c3)ccc2N2CCC[C@H]1C2 [Example 401]

- Tryp AVG EC1.5 (μM) [1]: B (B (EC1.5 1-25 μM))
SMILES: Cc1c(-c2ccc3c(n2)N(C(=O)Nc2cccnc2)[C@H]2CCN3C2)cnn1C [Example 489]

- Tryp AVG EC1.5 (μM) [2]: A (A (EC1.5<1 μM))
SMILES: CS(=O)(=O)c1cncc(-c2ccc3c(n2)N(C(=O)Nc2cncc(F)c2)[C@H]2CCCN3C2)c1 [Example 377]

- Tryp AVG EC1.5 (μM) [1]: C (C (EC1.5>25 μM))
SMILES: COc1cc(NC(=O)N2c3nc(-c4ccccc4C#N)ccc3N3CCC[C@H]2C3)ncn1 [Example 440]

- TRP Activity (EC1.5) (Trp peptide assay): B (B (EC1.5 1-25 μM))
- Emax [4]: > 150%
SMILES: Cc1cncc(NC(=O)N2c3nc(-c4ccnc(C)c4)ccc3N3CC[C@H]2C3)c1 [(9S)-N-(5-methylpyridin-3-yl)-5-(2-methylpyridin-4-yl)-1,6,8-triazatricyclo[7.2.1.0 {2,7}]dodeca-2(7),3,5-triene-8-carboxamide]

- Tryp AVG EC1.5 (μM) [2]: A (A (EC1.5<1 μM))
SMILES: N#Cc1cncc(-c2ccc3c(n2)N(C(=O)Nc2ccccn2)[C@H]2CCN3C2)c1 [Example 373]

- TRP Activity (EC1.5) (Trp peptide assay): B (B (EC1.5 1-25 μM))
- Emax [4]: > 150%
SMILES: COc1cc(-c2ccc3c(n2)N(C(=O)Nc2cnccn2)[C@H]2CCN3C2)ccn1 [(9S)-5-(2-methoxypyridin-4-yl)-N-(pyrazin-2-yl)-1,6,8-triazatricyclo[7.2.1.0 {2,7}]dodeca-2(7),3,5-triene-8-carboxamide]

- Tryp AVG EC1.5 (μM) [3]: A (A (EC1.5<1 μM))
SMILES: O=C(Nc1cccc(-c2cnco2)c1)N1c2nc(-c3cncc(F)c3)ccc2N2CC[C@H]1C2 [Example 722]

- Tryp AVG EC1.5 (μM) [3]: A (A (EC1.5<1 μM))
SMILES: O=C(Nc1ccncc1)N1c2nc(-c3cccc(C(F)(F)F)c3)ccc2N2CC[C@H]1C2 [Example 817]
